Assay [1] concerns the target B*3501 (Homo sapiens, UniProt P01889, A329T/A93T/A95T/C349S/D201E/D98Y/E176V/E187L/E204Q/E69T/I218V/K202T/L119I/Q94N/R155S/R180L/S121R/S35A/S48A/T118I/V127L/V306I/V36M/Y140S/Y91F). The assay is described as follows: Competition binding assay using soluble HLA class I. The following applies: for Ki: HLA-B3501 section.
Assay [2] addresses T1, HLA-Cw06 (Homo sapiens, UniProt P10321, A176E/A330V/C350S/L171W/L180W/L218V/M285V/M309V/M331V/N104K/P208H/Q277E/Q291P/R121W/R243W/S101N/S123Y/S297R/T329A/T363A/V319A/V328M).
T1 construct: endogenous in cells
The assay is described as follows: HLA class I competition cell-based binding assay.

The target of assay [3] is T2, HLA-Cw07 (Homo sapiens, UniProt P10321).
T2 construct: endogenous in cells
Nature of the assay: HLA class I competition cell-based binding assay.

The target in assay [4] is T3, DRB1*0101 (Homo sapiens, UniProt P01903+P01911, A100R/D57E/F55L/F60I/F76Y/I96L/L162R/M171V/P40L/Q125E/R42F/V115G/Y59C).
T3 construct: endogenous in cells; host or cells: cell lysate
Nature of the assay: Competition binding assay using soluble HLA class II.

The target in assay [5] is T4, DRB1*0301 (Homo sapiens, UniProt P01903+P01911, A100K/A102G/A103R/A169T/F55Y/I96L/K41T/L162R/M171V/P40S/Q125H/Q178H/Q39Y/R42S/S66N/T106N/T262R/W38E/Y61H).
T4 construct: endogenous in cells; HLA-DR was extracted from cell lysates on an LB3.1 antibody column
The assay is described as above.

Assay [6] deals with T5, B*0702 (Homo sapiens, UniProt P01889).
T5 construct: endogenous in cells
Nature of the assay: Competition binding assay using soluble HLA class I.

Assay [7] deals with T6, HLA-A03 (Homo sapiens, UniProt P04439).
T6 construct: endogenous in cells
The assay is described as above. The following applies: HLA-A1101 section; read-out: binds A0301 (asterisk in Ki column).

We go through 22 compounds from patent US20060093617A1, “Peptides for inducing a CTL and/or HTL response to hepatitis C virus” (Innogenetics, N.V., priority 2004, published 2006).

Where a SMILES comes first, the peptide text is derived from it.

For the compound `CC[C@H](C)[C@H](NC(=O)[C@H](CCC(N)=O)NC(=O)CNC(=O)CNC(=O)CNC(=O)[C@@H]1CCCN1C(=O)[C@@H](N)Cc1ccccc1)C(=O)N[C@H](C(=O)NCC(=O)O)C(C)C`, in assay [1], the Ki amounted to 2600 nM.
Regarding `CC[C@H](C)[C@H](NC(=O)[C@@H]1CCCN1C(=O)[C@@H](NC(=O)[C@H](C)NC(=O)[C@H](CCCCN)NC(=O)CNC(=O)[C@H](Cc1ccc(O)cc1)NC(=O)[C@@H](N)Cc1ccccc1)[C@@H](C)CC)C(=O)N[C@@H](CCC(=O)O)C(=O)N[C@H](C(=O)O)C(C)C`, the Ki is 5690 nM in assay [2] and 31 nM in assay [3].
In the case of `CSCC[C@H](NC(=O)[C@H](CCCNC(=N)N)NC(=O)[C@H](Cc1c[nH]cn1)NC(=O)CN)C(=O)N[C@@H](C)C(=O)N[C@@H](Cc1c[nH]c2ccccc12)C(=O)N[C@@H](CC(=O)O)C(=O)N[C@@H](CCSC)C(=O)N[C@@H](CCSC)C(=O)N[C@@H](CCSC)C(=O)N[C@@H](CC(N)=O)C(=O)N[C@@H](Cc1c[nH]c2ccccc12)C(=O)N[C@@H](CO)C(=O)N1CCC[C@H]1C(=O)N[C@H](C(=O)O)[C@@H](C)O`, the results for the IC50 in assay [4] and in assay [5] were 183 nM and 919 nM, respectively.
For the compound `CC[C@H](C)[C@H](N)C(=O)N[C@@H](CCCNC(=N)N)C(=O)N[C@@H](CO)C(=O)N[C@@H](CC(C)C)C(=O)N[C@H](C(=O)N[C@@H](CCC(=O)O)C(=O)N[C@@H](CCCNC(=N)N)C(=O)N[C@@H](CC(C)C)C(=O)N[C@@H](Cc1ccc(O)cc1)C(=O)O)[C@@H](C)O`, the values for the inhibition constant Ki in assay [2] and in assay [3] were 318 nM and 25 nM, respectively.
Consider `CC(C)C[C@H](NC(=O)[C@H](CC(C)C)NC(=O)[C@@H]1CCCN1C(=O)[C@@H](NC(=O)[C@@H]1CCCN1C(=O)CNC(=O)[C@H](Cc1c[nH]cn1)NC(=O)[C@@H](N)CC(C)C)[C@@H](C)O)C(=O)N[C@@H](Cc1ccc(O)cc1)C(=O)O`, for which the affinity in assay [3] corresponds to a Ki of 31 nM.
In turn, `CSCC[C@H](N)C(=O)NCC(=O)N[C@@H](CO)C(=O)N[C@@H](CO)C(=O)N[C@@H](Cc1ccc(O)cc1)C(=O)NCC(=O)N[C@@H](Cc1ccccc1)C(=O)N[C@@H](CCC(N)=O)C(=O)N[C@@H](Cc1ccc(O)cc1)C(=O)O` registered a Ki in assay [1] of 2610 nM.
On to `CC[C@H](C)[C@H](NC(=O)[C@@H](N)CC(N)=O)C(=O)N[C@H](C(=O)N[C@@H](CC(=O)O)C(=O)N[C@H](C(=O)N[C@@H](CCC(N)=O)C(=O)N[C@@H](Cc1ccc(O)cc1)C(=O)N[C@@H](CC(C)C)C(=O)N[C@@H](Cc1ccc(O)cc1)C(=O)O)C(C)C)C(C)C`, for which the Ki in assay [3] was determined as 56 nM.
As for `CC(C)[C@H](NC(=O)[C@H](CCCNC(=N)N)NC(=O)[C@H](C)NC(=O)[C@H](C)NC(=O)[C@H](C)NC(=O)[C@H](CC(=O)O)NC(=O)[C@H](CO)NC(=O)[C@H](CCC(=O)O)NC(=O)[C@@H]1CCCN1C(=O)[C@@H](NC(=O)[C@H](Cc1ccc(O)cc1)NC(=O)[C@H](Cc1c[nH]cn1)NC(=O)[C@@H](NC(=O)[C@@H]1CCCN1)[C@@H](C)O)C(C)C)C(=O)N[C@H](C(=O)O)[C@@H](C)O`, in assay [5], the IC50 was found to be 4950 nM.
In turn, `CC[C@H](C)[C@H](NC(=O)[C@@H]1CCCN1C(=O)[C@H](C)NC(=O)[C@H](CC(C)C)NC(=O)[C@H](CC(C)C)NC(=O)[C@@H](N)CCCNC(=N)N)C(=O)N[C@H](C(=O)N[C@@H](C)C(=O)N[C@@H](Cc1ccc(O)cc1)C(=O)O)[C@@H](C)O` yielded a Ki in assay [3] of 4820 nM.
Turning to `CC(C)C[C@H](NC(=O)[C@H](CCCNC(=N)N)NC(=O)[C@@H](NC(=O)[C@H](CO)NC(=O)[C@@H](NC(=O)[C@H](CCC(=O)O)NC(=O)[C@H](C)NC(=O)[C@@H]1CCCN1C(=O)[C@@H](N)[C@@H](C)O)[C@@H](C)O)C(C)C)C(=O)O`, the IC50 was determined as 375 nM in assay [6] and 1640 nM in assay [1] (Table 18, HLA-B7 binding peptides). The Ki was 375 nM in assay [6] (Ki (nM), HLA-B0702 section) and under 1000 nM in assay [6] (binds B0702 with Ki < 1000 nM (asterisk), asterisk in the HLA-B3501 section).
On to `CC(C)C[C@H](NC(=O)[C@H](Cc1ccccc1)NC(=O)[C@H](CCCCN)NC(=O)CNC(=O)[C@H](Cc1ccc(O)cc1)NC(=O)[C@@H](NC(=O)[C@H](CO)NC(=O)[C@H](Cc1ccc(O)cc1)NC(=O)[C@@H](N)[C@@H](C)O)[C@@H](C)O)C(=O)O`, for which the values for the Ki in assay [2] and in assay [3] were 4860 nM and 239 nM, respectively.
With `CSCC[C@H](NC(=O)[C@H](CC(C)C)NC(=O)[C@H](C)NC(=O)[C@H](CC(=O)O)NC(=O)[C@@H](NC(=O)[C@H](C)NC(=O)[C@@H](NC(=O)[C@@H](NC(=O)[C@@H](NC(=O)[C@@H](N)C(C)C)C(C)C)C(C)C)C(C)C)[C@@H](C)O)C(=O)N[C@H](C(=O)NCC(=O)N[C@@H](Cc1ccc(O)cc1)C(=O)N[C@H](C(=O)NCC(=O)O)[C@@H](C)O)[C@@H](C)O`, the IC50 in assay [5] was determined as 93 nM.
`N=C(N)NCCC[C@H](NC(=O)[C@H](CCC(N)=O)NC(=O)[C@@H](N)CC(=O)O)C(=O)N1CCC[C@H]1C(=O)N[C@@H](Cc1ccc(O)cc1)C(=O)N[C@@H](CS)C(=O)N[C@@H](Cc1c[nH]c2ccccc12)C(=O)N[C@@H](Cc1c[nH]cn1)C(=O)N[C@@H](Cc1ccc(O)cc1)C(=O)O` (H-DQRPYCWHY-OH; N-terminus and C-terminus assumed): affinity in assay [3] was put at a Ki of 710 nM.
On to `C[C@H](NC(=O)[C@H](CCC(=O)O)NC(=O)[C@@H]1CCCN1C(=O)[C@H](Cc1c[nH]cn1)NC(=O)[C@H](CCCCN)NC(=O)[C@H](CCCNC(=N)N)NC(=O)[C@@H](N)Cc1ccccc1)C(=O)N[C@H](C(=O)N[C@@H](Cc1ccc(O)cc1)C(=O)O)[C@@H](C)O` (H-FRKHPEATY-OH; N-terminus and C-terminus assumed), for which the Ki in assay [3] turned out to be 0.2 nM.
As to `CC(C)C[C@H](NC(=O)[C@H](CCCNC(=N)N)NC(=O)[C@@H]1CCCN1C(=O)CN)C(=O)NCC(=O)N[C@H](C(=O)N[C@@H](CCCNC(=N)N)C(=O)N[C@@H](C)C(=O)N[C@H](C(=O)N[C@@H](CCCNC(=N)N)C(=O)N[C@@H](CCCCN)C(=O)N[C@H](C(=O)N[C@@H](CO)C(=O)N[C@@H](CCC(=O)O)C(=O)N[C@@H](CCCNC(=N)N)C(=O)O)[C@@H](C)O)[C@@H](C)O)C(C)C` (H-GPRLGVRATRKTSER-OH; N-terminus and C-terminus assumed), the IC50 in assay [5] turned out to be 18900 nM.
As to `CC[C@H](C)[C@H](NC(=O)[C@H](CC(C)C)NC(=O)[C@H](CCCNC(=N)N)NC(=O)[C@H](C)NC(=O)[C@@H]1CCCN1C(=O)[C@H](CCCCN)NC(=O)[C@H](CCCNC(=N)N)NC(=O)CN)C(=O)N[C@H](C(=O)N[C@@H](Cc1ccccc1)C(=O)O)C(C)C` (H-GRKPARLIVF-OH), the values for the Ki in assay [2] and in assay [3] were 8960 nM and 753 nM, respectively.
In assay [3], `CC(C)C[C@H](NC(=O)[C@H](C)NC(=O)CNC(=O)[C@H](C)NC(=O)[C@@H](NC(=O)CN)C(C)C)C(=O)N[C@H](C(=O)N[C@@H](C)C(=O)N[C@@H](Cc1ccccc1)C(=O)O)C(C)C` (H-GVAGALVAF-OH; N-terminus and C-terminus assumed) yielded a Ki of 6160 nM.
In assay [3], `CSCC[C@H](NC(=O)CNC(=O)[C@H](CCC(=O)O)NC(=O)[C@H](CC(N)=O)NC(=O)CNC(=O)[C@H](Cc1ccc(O)cc1)NC(=O)[C@@H](N)CC(C)C)C(=O)NCC(=O)N[C@@H](Cc1c[nH]c2ccccc12)C(=O)N[C@@H](C)C(=O)O` (H-LYGNEGMGWA-OH; N-terminus and C-terminus assumed) yielded a Ki of 5110 nM.
With `CC[C@H](C)[C@H](NC(=O)[C@@H]1CCCN1C(=O)[C@H](CCC(N)=O)NC(=O)[C@@H](N)CCCNC(=N)N)C(=O)N1CCC[C@H]1C(=O)N[C@@H](CCCCN)C(=O)N[C@@H](C)C(=O)N[C@@H](CCCNC(=N)N)C(=O)N[C@@H](CCCNC(=N)N)C(=O)O` (H-RQPIPKARR-OH), the Ki in assay [7] was under 1000 nM.
Still for that read-out and setting: in the case of `CC(C)C[C@H](NC(=O)[C@@H](N)Cc1ccc(O)cc1)C(=O)N[C@@H](CC(C)C)C(=O)N1CCC[C@H]1C(=O)N[C@@H](CCCNC(=N)N)C(=O)N[C@@H](CCCNC(=N)N)C(=O)NCC(=O)N1CCC[C@H]1C(=O)N[C@@H](CCCNC(=N)N)C(=O)O` (H-YLLPRRGPR-OH) it was under 1000 nM.
`CC(C)C[C@H](NC(=O)[C@@H](NC(=O)CNC(=O)[C@H](CO)NC(=O)[C@H](C)NC(=O)[C@H](CCCNC(=N)N)NC(=O)[C@H](CS)NC(=O)[C@H](CCCNC(=N)N)NC(=O)[C@H](CCCNC(=N)N)NC(=O)[C@@H](N)Cc1ccc(O)cc1)C(C)C)C(=O)O` (H-YRRCRASGVL-OH) yielded an inhibitory constant (Ki) in assay [3] of 83 nM.
The same measure, in the same setting: the result for `CC[C@H](C)[C@H](NC(=O)[C@@H](NC(=O)[C@H](CO)NC(=O)[C@@H](NC(=O)[C@H](CC(=O)O)NC(=O)[C@H](CC(C)C)NC(=O)CNC(=O)[C@H](CCCNC(=N)N)NC(=O)[C@H](Cc1ccc(O)cc1)NC(=O)[C@@H](N)Cc1ccc(O)cc1)C(C)C)C(C)C)C(=O)O` (H-YYRGLDVSVI-OH) reads 87 nM.

Broadly, the Ki is the equilibrium dissociation constant of an inhibitor or competing ligand from its target. One may read the IC50 as the concentration that inhibits the measured activity by half. A higher IC50 goes with lower potency.
